Our source for the IC50 values is US9498483B2, “2,3,5-trisubstituted thiophene compounds and uses thereof” (priority 2010, dated 2016).

The test system of test [1] is HCV replicon I389luc-ubi-neo/NS3-3′/ET in ET (Huh-lucubineo-ET) cells. Briefly: Replicon assay (Biological Example 2), luciferase readout. The test is classed as cell-based. Particulars: Hepatitis C virus. In a few lines:
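EC50 values come from Hill fits of % inhibition of replicon-driven firefly luciferase, relative to no-compound wells. Compounds were serially diluted (10 points, 3-fold, 0.1 nM–50 μM final, 0.5% DMSO) onto ET replicon cells and read after 48 h.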

Another test deals with T1, HCV polymerase (Hepatitis C virus genotype 1b, UniProt Q9WMX2).
T1 construct: (His)6 (C); made in house; host or cells: XL-1 cells (E. coli, by own knowledge)
Briefly: Polymerase assay of Biological Example 1 (IC50 values of Table 3). The class given is biochemical. Particulars: IC50 values of Table 3, polymerase assay of Biological Example 1; read-out: NS5B-enzyme3.

Where [2] appears, read: ET cells, luciferase activity 48 hours after compound.

SMILES strings stand for the structures.

`CC(C)(C)C#Cc1cc(N2C(=O)CN(S(=O)(=O)c3cccnc3)C[C@H]2C2CCCCC2)c(C(=O)O)s1` [Compound 192, 3-[(R)-2-Cyclohexyl-6-oxo-4-(pyridine-3-sulfonyl)-piperazin-1-yl]-5-(3,3-dimethyl-but-1-ynyl)-thiophene-2-carboxylic acid]: the figures for the IC50 (in test [1] (setting [2]); on HCV polymerase) were ≤ 100 nM and 3 nM, respectively.
For `Cc1ccc(-c2cc(N3C(=O)CN(S(=O)(=O)c4ccc(N5CC6CCC(C5)O6)nc4)C[C@H]3C3CCCCC3)c(C(=O)O)s2)cc1` [Compound 198, 3-{(R)-2-Cyclohexyl-4-[6-(8-oxa-3-aza-bicyclo[3.2.1]oct-3-yl)-pyridine-3-sulfonyl]-6-oxo-piperazin-1-yl}-5-p-tolyl-thiophene-2-carboxylic acid], in that order: ≤ 100 nM and 1 nM.
In the same order, the values of `Cc1cc(S(=O)(=O)N2CC(=O)N(c3cc(-c4ccccc4)sc3C(=O)O)[C@H](C3CCCCC3)C2)cnc1N1CCC[C@H]1C` [Compound 173, 3-{(R)-2-Cyclohexyl-4-[5-methyl-6-((R)-2-methyl-pyrrolidin-1-yl)-pyridine-3-sulfonyl]-6-oxo-piperazin-1-yl}-5-phenyl-thiophene-2-carboxylic acid] are ≤ 100 nM and 1 nM.
In the same order, the values of `CN1CCC(N2CC(=O)N(c3cc(-c4ccccc4)sc3C(=O)O)[C@H](C3CCCCC3)C2)CC1` [Compound 271, 3-[(R)-2-Cyclohexyl-4-(1-methyl-piperidin-4-yl)-6-oxo-piperazin-1-yl]-5-phenyl-thiophene-2-carboxylic acid] are ≥ 5000 nM and 2470 nM.
Regarding `O=C(O)c1sc(-c2ccc(C(F)(F)F)cc2)cc1N1C(=O)CCCC1C1CCCCC1` (centres unmarked) [Compound 117, 3-(2-Cyclohexyl-6-oxo-piperidin-1-yl)-5-(4-trifluoromethyl-phenyl)-thiophene-2-carboxylic acid], the IC50 was ≥ 5000 nM in test [1] (setting [2]) and 739 nM on HCV polymerase.
For `CC(C)(C)C#Cc1cc(N2C(=O)CCCC[C@H]2C2CCCCC2)c(C(=O)O)s1` [Compound 335, 3-((S)-2-Cyclohexyl-7-oxo-azepan-1-yl)-5-(3,3-dimethyl-but-1-ynyl)-thiophene-2-carboxylic acid], the IC50 is 100 to 5000 nM in test [1] (between 100 nM and 5.0 uM); 24 nM on HCV polymerase.
In the case of `CC(C)(C)c1ccc(S(=O)(=O)N2CC(=O)N(c3cc(-c4ccccc4)sc3C(=O)O)C(C3CCCCC3)C2)cc1` (centres unmarked) [Compound 105, 3-[4-(4-tert-Butyl-benzenesulfonyl)-2-cyclohexyl-6-oxo-piperazin-1-yl]-5-phenyl-thiophene-2-carboxylic acid], the IC50 in test [1] (between 100 nM and 5.0 uM) is 100 to 5000 nM; at HCV polymerase, 2 nM.
Take `O=C(O)c1sc(-c2ccccc2)cc1N1C(=O)CN(S(=O)(=O)c2ccc(-c3ccc4c(c3)OCCCO4)nc2)C[C@H]1C1CCCCC1` [Compound 212, 3-{(R)-2-Cyclohexyl-4-[6-(3,4-dihydro-2H-benzo[b][1,4]dioxepin-7-yl)-pyridine-3-sulfonyl]-6-oxo-piperazin-1-yl}-5-phenyl-thiophene-2-carboxylic acid]: the IC50 was ≤ 100 nM in test [1] (setting [2]) and 2 nM at HCV polymerase.
In the same order, the values of `O=C(O)c1sc(-c2ccc(Cl)cc2)cc1N1C(=O)CN(S(=O)(=O)c2ccc(N3CCCCC3)cc2)C[C@H]1C1CCCCC1` [Compound 233, 5-(4-Chloro-phenyl)-3-[(R)-2-cyclohexyl-6-oxo-4-(4-piperidin-1-yl-benzenesulfonyl)-piperazin-1-yl]-thiophene-2-carboxylic acid] are ≤ 100 nM and 2 nM.
As to `CC1CCN(S(=O)(=O)N2CC(=O)N(c3cc(-c4ccccc4)sc3C(=O)O)C(C3CCCCC3)C2)CC1` (centres unmarked) [Compound 36, 3-[2-Cyclohexyl-4-(4-methyl-piperidine-1-sulfonyl)-6-oxo-piperazin-1-yl]-5-phenyl-thiophene-2-carboxylic acid], the IC50 in test [1] (between 100 nM and 5.0 uM) was 100 to 5000 nM; at HCV polymerase, 58 nM.
Take `CC(C)(C)C#Cc1cc(N2C(=O)C(CCO)CC[C@H]2C2CCCCC2)c(C(=O)O)s1` (single isomer, unassigned) [Compound 343]: the IC50 is ≤ 100 nM in test [1] (setting [2]) and 1 nM on HCV polymerase.
For `CC(C)(C)C#Cc1cc(N2C(=O)C(CCO)CC[C@H]2C2CCCCC2)c(C(=O)O)s1` (stereo partly drawn) [Compound 342, 3-[(S)-6-Cyclohexyl-3-(2-hydroxy-ethyl)-2-oxo-piperidin-1-yl]-5-(3,3-dimethyl-but-1-ynyl)-thiophene-2-carboxylic acid], in that order: ≤ 100 nM and 18 nM.
With `O=C(O)c1sc(-c2ccccc2)cc1N1C(=O)CN(S(=O)(=O)C2CCCCC2)CC1C1CCCCC1` (centres unmarked) [Compound 46, 3-(4-Cyclohexanesulfonyl-2-cyclohexyl-6-oxo-piperazin-1-yl)-5-phenyl-thiophene-2-carboxylic acid], the IC50 is 100 to 5000 nM in test [1] (between 100 nM and 5.0 uM); 63 nM at HCV polymerase.
As to `Cc1ccc(-c2cc(N3C(=O)CN(S(=O)(=O)c4ccc(N5CCOC[C@H]5C)nc4)C[C@H]3C3CCCCC3)c(C(=O)O)s2)cc1` [Compound 197, 3-{(R)-2-Cyclohexyl-4-[6-((R)-3-methyl-morpholin-4-yl)-pyridine-3-sulfonyl]-6-oxo-piperazin-1-yl}-5-p-tolyl-thiophene-2-carboxylic acid], the values for the IC50 (in test [1] (setting [2]); on HCV polymerase) were ≤ 100 nM and 4.6 nM, respectively.
For `CC(C)(C)C#Cc1cc(N2C(=O)C(CN3CCOCC3)OC[C@H]2C2CCCCC2)c(C(=O)O)s1` (stereo partly drawn) [Compound 310, 3-((R)-5-Cyclohexyl-2-morpholin-4-ylmethyl-3-oxo-morpholin-4-yl)-5-(3,3-dimethyl-but-1-ynyl)-thiophene-2-carboxylic acid], the IC50 in test [1] (setting [2]) is ≤ 100 nM; on HCV polymerase, 4 nM.
In the same order, the values of `CC(C)(C)C#Cc1cc(N2C(=O)[C@@](C)(CCCO)OC[C@H]2C2CCCCC2)c(C(=O)O)s1` [Compound 311, 3-[(2R,5R)-5-Cyclohexyl-2-(3-hydroxy-propyl)-2-methyl-3-oxo-morpholin-4-yl]-5-(3,3-dimethyl-but-1-ynyl)-thiophene-2-carboxylic acid] are ≤ 100 nM and 2 nM.
Take `CC(C)(C)C#Cc1cc(N2C(=O)COC[C@H]2C2CCCCC2)c(C(=O)O)s1` [Compound 236, 3-((R)-3-Cyclohexyl-5-oxo-morpholin-4-yl)-5-(3,3-dimethyl-but-1-ynyl)-thiophene-2-carboxylic acid]: the IC50 is ≤ 100 nM in test [1] (setting [2]) and 3 nM on HCV polymerase.
In the same order, the values of `Cc1ccc(S(=O)(=O)N2CC(=O)N(c3cc(C#CC(C)(C)C)sc3C(=O)O)C(C3CCCCC3)C2)cc1` (centres unmarked) [Compound 166, 3-[2-Cyclohexyl-6-oxo-4-(toluene-4-sulfonyl)-piperazin-1-yl]-5-(3,3-dimethyl-but-1-ynyl)-thiophene-2-carboxylic acid] are ≥ 5000 nM and 982 nM.
Turning to `O=C(O)c1sc(-c2ccccc2)cc1N1C(=O)COCC1C1CCCCC1` (centres unmarked) [Compound 13, 3-(3-Cyclohexyl-5-oxo-morphoIin-4-yl)-5-phenyl-thiophene-2-carboxylic acid], the IC50 in test [1] (between 100 nM and 5.0 uM) is 100 to 5000 nM; on HCV polymerase, 79 nM.
As for `CC(C)(C)C#Cc1cc(N2C(=O)CN(S(=O)(=O)c3cn[nH]c3)C[C@H]2C2CCCCC2)c(C(=O)O)s1` [Compound 241, 3-[(R)-2-Cyclohexyl-6-oxo-4-(1H-pyrazole-4-sulfonyl)-piperazin-1-yl]-5-(3,3-dimethyl-but-1-ynyl)-thiophene-2-carboxylic acid], the IC50 was ≤ 100 nM in test [1] (setting [2]) and 1 nM at HCV polymerase.
In the case of `CC(C)(C)C#Cc1cc(N2C(=O)CN(S(=O)(=O)c3c(F)cccc3F)C[C@H]2C2CCCCC2)c(C(=O)O)s1` [Compound 251, 3-[(R)-2-Cyclohexyl-4-(2,6-difluoro-benzenesulfonyl)-6-oxo-piperazin-1-yl]-5-(3,3-dimethyl-but-1-ynyl)-thiophene-2-carboxylic acid], the IC50 is ≤ 100 nM in test [1] (setting [2]) and 4 nM at HCV polymerase.
With `COC[C@@H]1CCCN1c1ccc(S(=O)(=O)N2CC(=O)N(c3cc(-c4ccccc4)sc3C(=O)O)[C@H](C3CCCCC3)C2)cn1` [Compound 171, 3-{(R)-2-Cyclohexyl-4-[6-((S)-2-methoxymethyl-pyrrolidin-1-yl)-pyridine-3-sulfonyl]-6-oxo-piperazin-1-yl}-5-phenyl-thiophene-2-carboxylic acid], the IC50 was ≤ 100 nM in test [1] (setting [2]) and 2 nM on HCV polymerase.
For `COC[C@@H]1CCCN1c1ccc(S(=O)(=O)N2CC(=O)N(c3cc(-c4ccc(F)cc4)sc3C(=O)O)[C@H](C3CCCCC3)C2)cn1` [Compound 279, 3-{(R)-2-Cyclohexyl-4-[6-((S)-2-methoxymethyl-pyrrolidin-1-yl)-pyridine-3-sulfonyl]-6-oxo-piperazin-1-yl}-5-(4-fluoro-phenyl)-thiophene-2-carboxylic acid], in that order: ≤ 100 nM and 1.1 nM.
Turning to `CC(C)(C)C#Cc1cc(N2C(=O)CN(S(=O)(=O)c3ccc(C(F)(F)F)cc3)C[C@H]2C2CCCCC2)c(C(=O)O)s1` [Compound 250, 3-[(R)-2-Cyclohexyl-6-oxo-4-(4-trifluoromethyl-benzenesulfonyl)-piperazin-1-yl]-5-(3,3-dimethyl-but-1-ynyl)-thiophene-2-carboxylic acid], the IC50 in test [1] (setting [2]) is ≤ 100 nM; at HCV polymerase, 5.5 nM.
In the same order, the values of `O=C(O)c1sc(-c2ccccc2)cc1N1C(=O)CN(S(=O)(=O)c2ccc(N3CCCC3)nc2)C[C@H]1C1CCCCC1` [Compound 135, 3-[(R)-2-Cyclohexyl-6-oxo-4-(6-pyrrolidin-1-yl-pyridine-3-sulfonyl)-piperazin-1-yl]-5-phenyl-thiophene-2-carboxylic acid] are ≤ 100 nM and 2.33 nM.
